Test results from US20250262272A1, “PEPTIDES AND METHODS OF USE THEREOF IN TREATING SKIN DISEASES” (Park Strategic Ventures LLC, priority 2022, published 2025).

Key:
[1] = tested on: MC903 induced mouse model of atopic dermatitis (AD); assay: MC903 induced mouse model of atopic dermatitis (AD); type: in vivo, C57BL/6 mice; settings: BIO11006 100 μM ip; day 10 only, days 9-10, days 4-10 or days 1-10
Text: FIG. 1A illustrates the methodological details of an MC903 induced mouse model of atopic dermatitis (AD). In particular, shown is a timeline of the AD induction model and application of the MARCKS inhibitor (BIO 11006) and the three different outcomes analyzed.
FIG. 1B illustrates the skin thickness in micrometers of mice administered MC903 daily for ten (10) days in order to mimic atopic dermatitis (AD) in each of four (4) test groups as compared to the skin thickness in micrometers of mice from either of two (2) control groups. The four (4) test groups consisted of mice administered MC903 daily plus intraperitoneal (ip) injection of BIO 11006 as either (1) a single dose on day 10, (2) a single dose on each of days 9 and 10, (3) a single dose on each of days 4-10, and (4) a daily single dose on each of days 1-10. The two (2) control groups consisted of (1) mice administered the vehicle only and (2) mice administered MC903 daily and vehicle only. […]
Given that the significant skin inflammation was expected to start at day 5, BIO11006 (100 μM) was administered by intraperitoneal injection in four (4) different settings as described in FIG. 1A (i.e., daily single doses from Day 1 through Day 10, Day 4 through Day 10, Days 9 and 10 or just Day 10). The skin thickness was measured at Day 0, 1, 3, 5, 7 and 10. Additionally, the itch behavior was recorded at Day 0 and Day 10.

[2] = tested on: imiquimod induced mouse model of psoriasis; assay: imiquimod induced mouse model of psoriasis; type: in vivo, C57BL/6 mice
Text: FIG. 2A illustrates the methodological details of an imiquimod induced mouse model of psoriasis. In particular, shown is a timeline of the psoriasis induction model and application of the MARCKS inhibitor (BIO 11006) and the three different outcomes analyzed.
FIG. 2B illustrates the skin thickness in micrometers of mice administered imiquimod daily for seven (7) days in order to mimic psoriasis in one (1) test group as compared to the skin thickness in micrometers from either of two (2) control groups. The test group consisted of mice administered imiquimod daily plus intraperitoneal (ip) injection of BIO 11006 as a daily single dose on each of days 1-7. The two (2) control groups consisted of (1) mice administered vaseline and (2) mice administered imiquimod daily and phosphate buffered saline (PBS). N=6-7 mice, mean+SD, 1-way ANOVA, Tukey test.
FIG. 3 depicts images of mice the skin on the nape of the neck for the test group and two control groups described for FIG. 2B and Example 1. #1, 2 and 3 represent same treatments.
FIG. 4 illustrates the percent dryness, flakiness, skin bumps and redness the skin on the nape of the neck for the test group and two control groups described for FIG. 2B and Example 1. At a scale of 0-5, 0 indicated no visible signs or symptoms; 1-3 indicated moderate forms of the respective sign or symptom; 4-5 indicated major forms of the respective sign or symptom.
Since skin inflammation and itch are common problems, two different mouse models with inflammation and itch were developed and used for rigorous in vivo testing of the inhibition of skin inflammation and itch in response to administration of the MARCKS inhibitor BIO11006 (Ac-GAQFSKTAAK-OH; SEQ ID NO: 106). The first model is a mouse model of AD induced using MC903. The second model is a mouse model of psoriasis induced using imiquimod. Imiquimod-induced disease progression of skin inflammation and itch resemble the MC903 mouse model. As such, the same relative timeline and drug delivery was used for the psoriasis mouse model as described for MC903 mouse model with exception that the terminal day was day 7 (D7 in FIG. 2A). As outlined in FIGS. 1A and 2A, these mouse models were used to conduct a comprehensive examination of how BIO11006 spatially and kinetically changed the skin following the onset of AD-like or psoriasis-like disease symptoms by measuring skin thickness, histological, molecular analysis of inflammatory markers, and itch behavior.
Given that the significant skin inflammation was expected to start at day 5, BIO11006 (100 μM) was administered by intraperitoneal injection in three (3) different settings as described in FIG. 2A (i.e., daily single doses from Day 1 through Day 7, Days 6 and 7 or just Day 7). The skin thickness was measured at Day 0, 1, 3, 5, and 7. Additionally, the itch behavior was recorded at Day 0 and Day 7.

[3] = BIO11006 100 μM ip daily, days 1-7, nape of the neck, scale 0-5 (FIG. 4)

Ac-GAQFSKTAAK-OH [BIO 11006]
results in the mouse model of AD (skin thickness, FIG. 1B) [1]: less conclusive | visible appearance of the skin on the nape of the neck ([2]; BIO11006 100 μM ip daily, days 1-7 (FIG. 3)): visible protection/improvement | skin bumps [2, 3]: significant decreases | skin dryness [2, 3]: significant decreases | skin flakiness [2, 3]: significant decreases | skin redness [2, 3]: significant decreases | skin thickness ([2]; BIO11006 100 μM ip, daily single dose days 1-7, end of the study, vs imiquimod + PBS (FIG. 2B)): significant decrease
